{"source": "patent US20120264159A1", "about": "“SCREENING SYSTEM FOR MODULATORS OF HER2 MEDIATED TRANSCRIPTION AND HER2 MODULATORS IDENTIFED THEREBY” (BUCK INSTITUTE FOR AGE RESEARCH, priority 2001, published 2012)", "key": {"ErbB2 transcript": {"tested_on": "ErbB2 transcript", "assay": "Northern blot of ErbB2 transcript levels in ErbB2 overexpressing breast cancer cells", "assay_type": "cell-based, human", "procedure": "The conserved and singular DNase I hypersensitivity sites found in the proximal ErbB2 and ESX promoters (12,15) were assayed as before (12). Briefly, following culture treatment of cells, nuclei isolated by mild detergent lysis in a buffer containing 10 mM Hepes pH 7.9, 1.5 mM MgCl2, 10 mM KCl, 0.4% NP-40, 10% glycerol and 1 mM DTT. Partial DNase I digestions were carried out by varying DNase I treatment times (0-15 minutes at 37( ) at a fixed DNase I concentrations (0.5-1.0 units per 10^6 nuclei). After purifying and restricting the DNA, it was electrophoresed through 0.7% agarose gels and blotted onto nylon membranes, UV-crosslinked and hybridized with randomly ^32P-labelled ErbB2 and ESX promoter probes, as similarly performed for routine Southern blotting. For Northern blotting, total (treated vs. control) cell RNA (10 μg/sample lane) was isolated using TRIzol (Invitrogen) according to manufacturer's specifications, electrophoresed into 1% agarose-formaldehyde gels and transferred onto membranes that were then hybridized with ^32P-labelled ErbB2 and ESX cDNA probes. For transcriptional run-off assays cell nuclei were first isolated from treated and control cells as described for the DNase I studies. Elongatation of initiated nascent RNA chains was performed at 37 (C for 30 minutes using ˜5×10^6 nuclei per reaction in a buffer containing 10 mM Tris pH7.5, 2.5 mM MgCl2, 150 mM KCl, 1 mM DTT, 10% glycerol, 0.5 mM ATP, GTP and CTP, and 100 μCi of [α-^32P]UTP (800 Ci/mmol). Nuclear RNA was purified by the addition of 100 units of RNase-free DNase I (Roche) per reaction for 2 minutes followed by TRIzol processing. Radiolabelled RNA was hybridized (˜4×10^6 cpm) at 68 (C in ExpressHyb (Clontech) for 24 hours to nylon filter membranes previously slotted with 0.5 μg per slot of unlabelled ErbB2 cDNA fragments (from either the transmembrane or C-terminal domains), ESX cDNA fragments, and empty plasmid control, as we have previously described (16). Filters were washed at 64 (C in 0.2 SSC and 0.5% SDS. For Western blotting, whole-cell extracts from control vs. treated cells were boiled in sample loading buffer (1% SDS, 20% glycerol, 100 mM DTT, 50 mM Tris, pH 6.8), gel lanes loaded for constant total protein (15 μg), electrophoresed into 9% sodium dodecyl sulfacte polyacrylamide (SDS-PAGE) gels, transferred onto membranes (Immobilon-P, Millipore), and the protein-bound membranes hybridized with a primary antibody followed by a horseradish peroxidase-conjugated secondary antibody (Sigma), and specific protein bands visualized by chemiluminescent substrate (Pierce), as previously described (10)."}, "ESX transcript": {"tested_on": "ESX transcript", "assay": "Northern blot of ESX transcript levels in SKBR3 cells", "assay_type": "cell-based, human", "conditions": "24 hours TSA treatment", "procedure": "(§1) The conserved and singular DNase I hypersensitivity sites found in the proximal ErbB2 and ESX promoters (12,15) were assayed as before (12). Briefly, following culture treatment of cells, nuclei isolated by mild detergent lysis in a buffer containing 10 mM Hepes pH 7.9, 1.5 mM MgCl2, 10 mM KCl, 0.4% NP-40, 10% glycerol and 1 mM DTT. Partial DNase I digestions were carried out by varying DNase I treatment times (0-15 minutes at 37( ) at a fixed DNase I concentrations (0.5-1.0 units per 10^6 nuclei). After purifying and restricting the DNA, it was electrophoresed through 0.7% agarose gels and blotted onto nylon membranes, UV-crosslinked and hybridized with randomly ^32P-labelled ErbB2 and ESX promoter probes, as similarly performed for routine Southern blotting. For Northern blotting, total (treated vs. control) cell RNA (10 μg/sample lane) was isolated using TRIzol (Invitrogen) according to manufacturer's specifications, electrophoresed into 1% agarose-formaldehyde gels and transferred onto membranes that were then hybridized with ^32P-labelled ErbB2 and ESX cDNA probes. For transcriptional run-off assays cell nuclei were first isolated from treated and control cells as described for the DNase I studies. […]"}, "[1]": {"tested_on": "ErbB2 transcript synthesis", "assay": "Nuclear run-off assay of ErbB2 transcript synthesis in SKBR3 cells", "assay_type": "cell-based, human", "conditions": "5 hours, 0.4 μM TSA", "procedure": "(§2) The conserved and singular DNase I hypersensitivity sites found in the proximal ErbB2 and ESX promoters (12,15) were assayed as before (12). Briefly, following culture treatment of cells, nuclei isolated by mild detergent lysis in a buffer containing 10 mM Hepes pH 7.9, 1.5 mM MgCl2, 10 mM KCl, 0.4% NP-40, 10% glycerol and 1 mM DTT. […]\n(§3) Nuclear run-off experiments were performed on ErbB2 overexpressing breast cancer cells to confirm the conclusion drawn from TSA induced downregulation of luciferase expression in MCF/R06pGL-9 cells that HDAC inhibitors can suppress ErbB2 promoter activity and presumably also repress ErbB2 transcription. […] Slot blot hybridization stringency was adjusted so that no signal could be detected from those control slots containing the empty plasmid."}, "ESX mRNA synthesis": {"tested_on": "ESX mRNA synthesis", "assay": "Nuclear run-off assay of ESX mRNA synthesis in SKBR3 cells", "assay_type": "cell-based, human", "conditions": "5 hours, 0.4 μM TSA", "procedure": "as §2, §3"}, "ErbB2 protein": {"tested_on": "ErbB2 protein", "assay": "Western blot of 185 kDa ErbB2 protein levels in breast cancer cell lines", "assay_type": "cell-based, human", "procedure": "as §1"}, "[2]": {"tested_on": "ErbB2 and ESX promoter hypersensitive loci", "assay": "DNase I hypersensitivity analysis of ErbB2 and ESX promoters", "assay_type": "cell-based, human", "conditions": "SKBR3 cells, 24 hour, 0.4 μM TSA", "procedure": "as §1"}, "RO6 HER2 promoter": {"tested_on": "RO6 HER2 promoter", "assay": "Basal promoter activity of MCF-7b stable RO6 populations", "assay_type": "cell-based, human", "conditions": "10 nM, 24 hours, serum-free media, clone and polyclonal populations", "procedure": "Parental cell lines MCF-7, and MDA-453 were transfected with the construct Ro6pGL (FIG. 2) in conjunction with pcMneo construct using lipid-based transfection (Effectene) at a ratio of 20:1 reporter:selectable marker (see, FIG. 4). Monoclonal and polyclonal populations were selected in 0.5 mg/ml G418 over 2 to 4 weeks.\nReporter activity was assayed as follows: From T-150 or T-75 culture flasks, about […] cells/well were plated into a 96 well plate format for high-throughput screening. 24 hours post plating a test agent e.g. a drug from a combinatorial library, was added to the wells at various concentrations. Certain wells were used as controls (e.g. PBS or DMSO vehicle only). Replicate wells ([…] per drug concentration) were run. 24 hours after addition of the test agent the cells were lysed, a luciferase reagent was added and activity in each well was read using a high-throughput screening plate reader (labsystems Fluoroskan). Parallel plates were run for cell viability using an MTT assay (Sigma)."}, "[3]": {"tested_on": "NCI panel of 60 human cancer cell lines", "conditions": "NCI/DTP screen, 60 human cancer cell line panel; read-out: median cytotoxic concentration (LC50); cited from earlier work"}}, "data": [{"smiles": "CC(/C=C/C(=O)NO)=C\\[C@@H](C)C(=O)c1ccc(N(C)C)cc1", "note": "[TSA, trichostatin A]", "values": [{"measurement": "ErbB2 transcript levels relative to control", "setting": "ErbB2 transcript; 8 hour TSA treatment, Northern assays (data not shown)", "result": "< 20 % of control"}, {"measurement": "ErbB2 transcript levels", "setting": "ErbB2 transcript; MDA-453 and BT-474 cells, similar TSA treatment (data not shown)", "result": "Virtually complete elimination of ErbB2 transcript levels"}, {"measurement": "ErbB2 mRNA level / decay", "setting": "ErbB2 transcript; SKBR3 cells, 5 hours treatment, TSA 0.05 or 0.40 μM, Act D 10 μg/ml", "result": "greatly enhanced the rate of ErbB2 mRNA decay"}, {"measurement": "ErbB2 transcript levels", "setting": "ErbB2 transcript; SKBR3 cells, 24 hours, 0.4 μM TSA", "result": "near total disappearance of ErbB2 transcripts"}, {"measurement": "increase in ESX transcript levels", "setting": "ESX transcript", "result": 5, "unit": "fold"}, {"measurement": "synthesis of new ErbB2 transcripts", "setting": "[1]", "result": "profoundly suppresses synthesis of new ErbB2 transcripts"}, {"measurement": "ESX mRNA synthesis", "setting": "ESX mRNA synthesis", "result": "preserves ESX mRNA synthesis"}, {"measurement": "ectopic 185 kDa ErbB2 protein level", "setting": "ErbB2 protein; MCF/HER2-18 cells (CMV promoter), same TSA treatment conditions", "result": "further stimulated"}, {"measurement": "endogenous 185 kDa ErbB2 protein levels (normalized to α-tubulin)", "setting": "ErbB2 protein; SKBR3, MDA-453 and BT-474 cells, 24 hour, 0.4 μM TSA", "result": "marked decline"}, {"measurement": "DNase I hypersensitivity of ErbB2 and ESX promoter loci", "setting": "[2]", "result": "lack of any TSA treatment effects on the hypersensitive loci"}, {"measurement": "basal promoter activity", "setting": "RO6 HER2 promoter", "result": "decreased basal promoter activity"}, {"measurement": "CC50", "setting": "[3]", "result": "> 10", "unit": "µM"}]}]}
